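All cell lines were grown in 96-well plates and treated with compound for 48 hours. Definition used: TGI = concentration required for complete inhibition of growth.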 Some results are limits rather than exact numbers.

The test system of the first experiment is ACHN renal. Nature of the experiment: NCI-60 cell line screen, 48 h.
In the case of `N#C/C(N)=C(\C#N)NC=NCc1ccccc1`, the TGI is > 100 µM.

`Cc1c(O)c(C)c2c(C)cn(C(=O)C(C)(C)C)c2c1C` displayed a TGI of 35.3 µM.

For the compound `CN1C(=O)C(CC=O)(C(C)(C)C)c2ccccc21` (stereo not drawn), the TGI was > 100 µM.

For the compound `COc1ccc(/C=N/n2c(-c3ccccc3)n[nH]c2=O)cc1`, the TGI was > 100 µM.

For the compound `O=C1C[C@H]2[C@@H](O1)[C@@H](O)CN1C(=O)c3ccccc3[C@H]21`, the TGI was > 100 µM.

Consider `O=P(O)(Cc1ccccc1)c1ccccc1-c1ccccc1`, for which the TGI is > 100 µM.

`CCO/C=N/NC(=O)CSc1nc2ccc(I)cc2c(=O)n1Cc1ccccc1`: the TGI is > 100 µM.

Take `CSc1nncc2[nH]c(C)nc12`: the TGI is > 100 µM.

Regarding `CCOC(=O)c1ccc(C(=O)/C(C#N)=C2\CCCN2C)[nH]1`, the TGI was > 100 µM.

On to `COc1ccc(C(OC(C)=O)C2C(=C(C#N)C#N)c3ccccc3C2=C(C#N)C#N)cc1` (stereo not drawn), for which the TGI was > 100 µM.

`Oc1ccc(-c2nc(-c3ccc(F)cc3)c(-c3ccc4ccccc4n3)[nH]2)cc1` displayed a TGI of 24.9 µM.

`C[C@@]12CCC3C1C=C1C(=O)c4cc(O)ccc4C(=O)[C@]1(O2)[C@@]3(C)C=O` came in with a TGI of 17.1 µM.

Take `Cc1ccc(C(=O)N/N=C(\N=Nc2ccccc2[N+](=O)[O-])c2ccc(N(C)C)cc2)cc1`: the TGI is > 100 µM.

Compound `CC(C)C1=C(Cc2ccccc2)C(=O)O/C1=C\c1cc(Cl)c(O)c(Cl)c1` yielded a TGI of 33 µM.

As to `Cc1cc(OCc2nnc3n2N=C(c2cc(F)c(Cl)cc2Cl)/C(=C/c2ccc(Cl)cc2)S3)ccc1Cl`, the TGI was > 100 µM.

In a further experiment the test system is HCT-116 colon. Description: NCI-60 cell line screen, 48 h.
Turning to `N#C/C(N)=C(\C#N)NC=NCc1ccccc1`, the TGI is > 100 µM.

The compound `Cc1c(O)c(C)c2c(C)cn(C(=O)C(C)(C)C)c2c1C` returned a TGI of 45.3 µM.

As for `CN1C(=O)C(CC=O)(C(C)(C)C)c2ccccc21` (stereo not drawn), the TGI is > 100 µM.

With `COc1ccc(/C=N/n2c(-c3ccccc3)n[nH]c2=O)cc1`, the TGI was > 100 µM.

In the case of `O=C1C[C@H]2[C@@H](O1)[C@@H](O)CN1C(=O)c3ccccc3[C@H]21`, the TGI was > 100 µM.

`O=P(O)(Cc1ccccc1)c1ccccc1-c1ccccc1`: the TGI is > 100 µM.

As to `CCO/C=N/NC(=O)CSc1nc2ccc(I)cc2c(=O)n1Cc1ccccc1`, the TGI is > 100 µM.

For the compound `CSc1nncc2[nH]c(C)nc12`, the TGI was > 100 µM.

With `CCOC(=O)c1ccc(C(=O)/C(C#N)=C2\CCCN2C)[nH]1`, the TGI was > 100 µM.

Turning to `COc1ccc(C(OC(C)=O)C2C(=C(C#N)C#N)c3ccccc3C2=C(C#N)C#N)cc1` (stereo not drawn), the TGI is > 100 µM.

`Oc1ccc(-c2nc(-c3ccc(F)cc3)c(-c3ccc4ccccc4n3)[nH]2)cc1`: the TGI came to 32.4 µM.

In turn, `C[C@@]12CCC3C1C=C1C(=O)c4cc(O)ccc4C(=O)[C@]1(O2)[C@@]3(C)C=O` displayed a TGI of 12.8 µM.

As to `COC(=O)c1c(O)ccc2c1c1c(n2Cc2ccc(Cl)cc2Cl)C(=O)c2ccccc2C1`, the TGI is > 100 µM.

Turning to `Cc1ccc(C(=O)N/N=C(\N=Nc2ccccc2[N+](=O)[O-])c2ccc(N(C)C)cc2)cc1`, the TGI was > 100 µM.

In the case of `CC(C)C1=C(Cc2ccccc2)C(=O)O/C1=C\c1cc(Cl)c(O)c(Cl)c1`, the TGI was found to be 34.8 µM.

For `Cc1cc(OCc2nnc3n2N=C(c2cc(F)c(Cl)cc2Cl)/C(=C/c2ccc(Cl)cc2)S3)ccc1Cl`, the TGI came to 66.9 µM.

For a further experiment, the system named is HCT-15 colon. Description: NCI-60 cell line screen, 48 h.
As to `N#C/C(N)=C(\C#N)NC=NCc1ccccc1`, the TGI was > 100 µM.

Regarding `Cc1c(O)c(C)c2c(C)cn(C(=O)C(C)(C)C)c2c1C`, the TGI was 40.6 µM.

Turning to `CN1C(=O)C(CC=O)(C(C)(C)C)c2ccccc21` (stereo not drawn), the TGI is > 100 µM.

As to `COc1ccc(/C=N/n2c(-c3ccccc3)n[nH]c2=O)cc1`, the TGI was > 100 µM.

Turning to `O=C1C[C@H]2[C@@H](O1)[C@@H](O)CN1C(=O)c3ccccc3[C@H]21`, the TGI is > 100 µM.

For the compound `O=P(O)(Cc1ccccc1)c1ccccc1-c1ccccc1`, the TGI was > 100 µM.

For the compound `CCO/C=N/NC(=O)CSc1nc2ccc(I)cc2c(=O)n1Cc1ccccc1`, the TGI is > 100 µM.

With `CSc1nncc2[nH]c(C)nc12`, the TGI was > 100 µM.

Take `CCOC(=O)c1ccc(C(=O)/C(C#N)=C2\CCCN2C)[nH]1`: the TGI is > 100 µM.

On to `COc1ccc(C(OC(C)=O)C2C(=C(C#N)C#N)c3ccccc3C2=C(C#N)C#N)cc1` (stereo not drawn), for which the TGI was > 100 µM.

Compound `Oc1ccc(-c2nc(-c3ccc(F)cc3)c(-c3ccc4ccccc4n3)[nH]2)cc1` came in with a TGI of 23.6 µM.

`C[C@@]12CCC3C1C=C1C(=O)c4cc(O)ccc4C(=O)[C@]1(O2)[C@@]3(C)C=O` came in with a TGI of 11.5 µM.

As to `COC(=O)c1c(O)ccc2c1c1c(n2Cc2ccc(Cl)cc2Cl)C(=O)c2ccccc2C1`, the TGI is > 100 µM.

For the compound `Cc1ccc(C(=O)N/N=C(\N=Nc2ccccc2[N+](=O)[O-])c2ccc(N(C)C)cc2)cc1`, the TGI was > 100 µM.

`CC(C)C1=C(Cc2ccccc2)C(=O)O/C1=C\c1cc(Cl)c(O)c(Cl)c1` yielded a TGI of 39.7 µM.

In turn, `Cc1cc(OCc2nnc3n2N=C(c2cc(F)c(Cl)cc2Cl)/C(=C/c2ccc(Cl)cc2)S3)ccc1Cl` yielded a TGI of 63.4 µM.

For the next experiment, the system named is HOP-62 NSCLC. Description: NCI-60 cell line screen, 48 h.
For `N#C/C(N)=C(\C#N)NC=NCc1ccccc1`, the TGI is > 100 µM.

`Cc1c(O)c(C)c2c(C)cn(C(=O)C(C)(C)C)c2c1C`: the TGI turned out to be 31.7 µM.

Regarding `CN1C(=O)C(CC=O)(C(C)(C)C)c2ccccc21` (stereo not drawn), the TGI was > 100 µM.

As for `COc1ccc(/C=N/n2c(-c3ccccc3)n[nH]c2=O)cc1`, the TGI was > 100 µM.

For `O=C1C[C@H]2[C@@H](O1)[C@@H](O)CN1C(=O)c3ccccc3[C@H]21`, the TGI is > 100 µM.

Consider `O=P(O)(Cc1ccccc1)c1ccccc1-c1ccccc1`, for which the TGI was > 100 µM.

For `CCO/C=N/NC(=O)CSc1nc2ccc(I)cc2c(=O)n1Cc1ccccc1`, the TGI is > 100 µM.

For `CSc1nncc2[nH]c(C)nc12`, the TGI is > 100 µM.

`CCOC(=O)c1ccc(C(=O)/C(C#N)=C2\CCCN2C)[nH]1`: the TGI was > 100 µM.

`COc1ccc(C(OC(C)=O)C2C(=C(C#N)C#N)c3ccccc3C2=C(C#N)C#N)cc1` (stereo not drawn) returned a TGI of 62.6 µM.

On to `Oc1ccc(-c2nc(-c3ccc(F)cc3)c(-c3ccc4ccccc4n3)[nH]2)cc1`, for which the TGI was 33.4 µM.

In turn, `C[C@@]12CCC3C1C=C1C(=O)c4cc(O)ccc4C(=O)[C@]1(O2)[C@@]3(C)C=O` gave a TGI of 20.2 µM.

Take `COC(=O)c1c(O)ccc2c1c1c(n2Cc2ccc(Cl)cc2Cl)C(=O)c2ccccc2C1`: the TGI was > 100 µM.

`CC(C)C1=C(Cc2ccccc2)C(=O)O/C1=C\c1cc(Cl)c(O)c(Cl)c1`: the TGI is 42.4 µM.

With `Cc1cc(OCc2nnc3n2N=C(c2cc(F)c(Cl)cc2Cl)/C(=C/c2ccc(Cl)cc2)S3)ccc1Cl`, the TGI was > 100 µM.

The next experiment deals with HOP-92 NSCLC. Description: NCI-60 cell line screen, 48 h.
Turning to `Cc1c(O)c(C)c2c(C)cn(C(=O)C(C)(C)C)c2c1C`, the TGI was 17.5 µM.

On to `CN1C(=O)C(CC=O)(C(C)(C)C)c2ccccc21` (stereo not drawn), for which the TGI is > 100 µM.

`CCO/C=N/NC(=O)CSc1nc2ccc(I)cc2c(=O)n1Cc1ccccc1`: the TGI was > 100 µM.

Turning to `COc1ccc(C(OC(C)=O)C2C(=C(C#N)C#N)c3ccccc3C2=C(C#N)C#N)cc1` (stereo not drawn), the TGI is > 100 µM.

The compound `C[C@@]12CCC3C1C=C1C(=O)c4cc(O)ccc4C(=O)[C@]1(O2)[C@@]3(C)C=O` gave a TGI of 20.8 µM.

Turning to `Cc1ccc(C(=O)N/N=C(\N=Nc2ccccc2[N+](=O)[O-])c2ccc(N(C)C)cc2)cc1`, the TGI was > 100 µM.
